Reference: patent US20040248971A1, “Use of vitamin e succinate and antiandrogen combination” (priority 2001, published 2004)
“Also recorded” adds a separate entry of the source.

Tests used:
[1] = tested on: LNCaP cells; experiment: MTT assay / cell counting, LNCaP cell growth; format: cell-based, human; details: for DHT-mediated LNCaP cell growth: 8% CS-FBS with 5 nM DHT
Description: Cells were harvested at the time indicated. […] Cells were harvested at the time indicated. […] Cell growth was determined by the MTT assay. The control group was cultured in 0.1% (vol/vol) ethanol and was set at 100%.
All the cell growth was determined by cell counting and MTT assay. Control group contained 0.1% (v/v) ethanol and was set at 100%.
LNCaP cells were cultured in RPMI medium with 8% FBS, and treated with 10^−5M of the indicated reagent Cells were harvested at the time indicated in the figure. All the cell growth was determined by cell counting and MTT assay. Control group contained 0.1% (v/v) ethanol and was set at 100%.
The human prostate cancer cell line LNCaP was obtained from the American Type Culture collection (Rockville, Md.). Fibroblast cell was primarily cultured from normal prostate tissue. LNCaP cells were propagated in 12-well, 60 mm or 100 mm culture dishes at the desired density in RPMI 1640 medium (Gibco, Rockville, Md.) supplemented with 8% fetal bovine serum (FBS) (Gibco, Rockville, Md.) at 37° C. and 5% CO2 until reaching 60%-80% confluence or were grown in phenol red-free RPMI medium 1640 with 8% fetal bovine serum (FBS). The fibroblast cells were maintained in DMEM (Gibco, Rockville, Md.) with 10% FBS. […] During the treatment, the medium was changed every 4 days and fresh compounds were added every 2 days.
The MTT assay is a quantitative colorimetric assay for mammalian cell survival and proliferation (13, 16). The 5×10^4 LNCaP cells were seeded in 12-well plates. After 36-48 h, the medium was changed to phenol red free RPMI1640 with 8 % FBS or CS-FBS for another 2, 4, and 6 days, with different compound treatment with or without ligand. At the end of each time period treatment, 200 μl of MTT (5 mg/ml; Sigma) was added into the each well with 1 ml of medium for 3 h at 37° C. After incubation, 2 ml of 0.04 M HCl in isopropyl alcohol was added into each well. After 30-min shaking at room temperature and several pippettings, the absorbency was read at a test wavelength of 595 nm. The 2×10^5 fibroblast cells were seeded in each well of 6-well dishes. […] For cell counting, cells were trypsinized, neutralized by medium, and counted on hemocytometers. Fibroblast cells were seeded at 2×10^5 per well in 6-well plates, and cell growth assays were conducted by using the same MTT assay used for LNCaP cells.

[2] = tested on: PSA; experiment: PSA expression in LNCaP cells (Western and Northern blotting); format: cell-based, human; details: for PSA expression at mRNA and protein levels: 5 nM DHT, 10 μM VES, Western and Northern blotting; for PSA expression: Western blotting (FIG. 9)
Description: (§1) Cells without treatment were harvested on day 2 and used as a control. Western blotting was used to detect the expression of PSA protein. Actin served as an internal control. […] Cells were harvested on days 1, 2, and 3 for Northern blotting analysis. β-Actin served as an internal control. […] The transfections were performed at least three times and presented as an average±SD. […] LNCaP cells without any treatment harvested on the first day (day 0) is used as a control. Western blotting was applied to detect the expression of PSA protein level. […] Cells were harvested on day 1, 2, and 3 for Northern blotting analyses. (G). […] The transfections were performed three times and presented as an average: bar-denotes standard deviation.
Protein harvested from cells without treatment on the first day (day 0) was used as a control. Fifty micrograms of whole-cell lysate was subjected to Western blotting assay.
LNCaP cells were cultured in RPMI medium with 8% FBS, and treated with […] of the indicated reagent. Proteins harvested from cells without treatment on day 2 were used as a control. 60 micrograms of whole cell lysate was subjected to Western blotting assay.
(§2) Total protein lysate from LNCaP cells was prepared as previously described (Yeh, PNAS). After separation of 50 μg protein by SDS-PAGE gel, proteins were transferred by electrophoresis to Immobilon-P membrane (Millipore Corp., Bedford, Mass.) and incubated in PBS with 0.1% Tween-20 and 10% FCS for 2 h. Primary antibodies specific for human AR, PSA, and β-actin were diluted in PBS with 0.1% Tween-20 (PBST) as described in manual and incubated at room temperature for 2 h. Membranes were washed in PBST (three times, 10 min each time) and incubated with AP-conjugated secondary antibody which was diluted as described in manual in PBST and incubated for 2 h in room temperature, washed in PBST (three times, 10 min each time). The proteins were detected by AP western blotting reagents.
Cells were harvest after 1, 2, and 3 days treatment. Total RNA was extracted using Trizol, according to manufacturer's directions (GIBCO). Total RNA (20 μg) was electrophoresed though formaldehyde-agarose gels and transferred to Hybond-N+ membrane (Amersham Pharmacia Biotech) according the company's protocol (17).
For Northern blots, the fragments of the human PSA, AR, and β-actin cDNA were labeled with [^32P]-dCTP using the random primed DNA labeling kit from Amersham Pharmacia Biotech. Membranes were prehybridized, hybridized, and washed using Rapid-hyb system from Amersham Pharmacia Biotech, according to the manufacturer's user manual. The mRNA was detected using phosphorimager screen system (Molecular Dynamics).

[3] = tested on: PSA6.0-Luc; experiment: PSA promoter luciferase reporter (PSA6.0-Luc) in LNCaP cells; format: cell-based, human; details: 5 nM DHT, 10 μM VES or Suc
Description: as §1

[4] = tested on: AR; experiment: In vivo AR radioligand competition binding assay in LNCaP cells; set-up: species or system human
Description: [^3H]R1881-binding without competition was set at 100%. […] (B) AR N-C dimerization.
LNCaP cells were plated into 60-mm dishes and grown to 60% confluence. […] After 1-h incubation, cells were harvested by lysis buffer (PBS with 1% Triton X-100). Equal protein amounts of cell extract were subjected to binding assays, which were terminated by adding hydroxylapatite. Each sample was filtered by using a sampling manifold (Millipore) and unbound ligand was removed by washing. Filter papers that contained bound ligand were transferred to counting vials containing 5 ml of liquid scintillation fluid and counted with a multipurpose scintillation counter (Beckman).

[5] = tested on: AR; experiment: AR expression in LNCaP cells (Western and Northern blotting); format: cell-based, human; details: for AR expression at the protein level: Western blotting, Suc or SM, 10 nM Vit D; for AR expression: Western blotting (FIG. 9)
Description: Cells were harvested at different time points. Twenty-five micrograms of RNA and 50 μg of protein collected from the same culture dish were applied for Northern blotting and Western blotting assays, respectively (45). The amount of actin is shown as a control. […] LNCaP cells without treatment were harvested on day 2 and used as a control. Whole-cell lysates were subjected to Western blotting assay using primary antibodies for AR, VDR, PPAR, or RXR. […] Protein harvested from cells without treatment on the first day (day 0) was used as a control. Fifty micrograms of whole-cell lysate was subjected to Western blotting assay. […] LNCaP cells were cultured in RPMI medium with 8% FBS, and treated with […] of the indicated reagent. Proteins harvested from cells without treatment on day 2 were used as a control. 60 micrograms of whole cell lysate was subjected to Western blotting assay. Total protein lysate from LNCaP cells was prepared as previously described (Yeh, PNAS). […] Membranes were washed in PBST (three times, 10 min each time) and incubated with AP-conjugated secondary antibody which was diluted as described in manual in PBST and incubated for 2 h in room temperature, washed in PBST (three times, 10 min each time). The proteins were detected by AP western blotting reagents. […] Cells were harvest after 1, 2, and 3 days treatment. Total RNA was extracted using Trizol, according to manufacturer's directions (GIBCO). Total RNA (20 μg) was electrophoresed though formaldehyde-agarose gels and transferred to Hybond-N+ membrane (Amersham Pharmacia Biotech) according the company's protocol (17). For Northern blots, the fragments of the human PSA, AR, and β-actin cDNA were labeled with [^32P]-dCTP using the random primed DNA labeling kit from Amersham Pharmacia Biotech. Membranes were prehybridized, hybridized, and washed using Rapid-hyb system from Amersham Pharmacia Biotech, according to the manufacturer's user manual. The mRNA was detected using phosphorimager screen system (Molecular Dynamics).

[6] = tested on: primary cultured fibroblasts from normal prostate tissue; experiment: MTT assay, primary cultured prostate fibroblast growth; format: cell-based; details: 10 μM VES, 10% FBS DMEM
[7] = tested on: SP1; experiment: GAL4-SP1 transactivation (pG5-Luc) in COS-1 cells; format: cell-based; details: 10 μM VES
[8] = tested on: AR; experiment: AR translocation / immunostaining; format: cell-based
Source text: Whether VES could influence translocation of AR was examined.

[9] = tested on: PPARα; experiment: PPAR expression in LNCaP cells (Western blotting); format: cell-based, human
Description: (§3) Cells were harvested at different time points. Twenty-five micrograms of RNA and 50 μg of protein collected from the same culture dish were applied for Northern blotting and Western blotting assays, respectively (45). The amount of actin is shown as a control. […] LNCaP cells without treatment were harvested on day 2 and used as a control. Whole-cell lysates were subjected to Western blotting assay using primary antibodies for AR, VDR, PPAR, or RXR.
as §2

[10] = tested on: RXRα; experiment: RXR expression in LNCaP cells (Western blotting); format: cell-based, human; details: 10 μM VES
Description: as §3, §2

[11] = tested on: LNCaP cells; experiment: MTT assay / cell counting, LNCaP cell growth; format: cell-based, human; details: 10 μM VES, 4 days, phase-contrast
[12] = biological target: human TAP (hTAP) (Homo sapiens, UniProt O76054); details: recombinant hTAP; read-out: Kd of binding to recombinant hTAP; cited from earlier work
Sequence of human TAP (hTAP) (O76054 whole entry): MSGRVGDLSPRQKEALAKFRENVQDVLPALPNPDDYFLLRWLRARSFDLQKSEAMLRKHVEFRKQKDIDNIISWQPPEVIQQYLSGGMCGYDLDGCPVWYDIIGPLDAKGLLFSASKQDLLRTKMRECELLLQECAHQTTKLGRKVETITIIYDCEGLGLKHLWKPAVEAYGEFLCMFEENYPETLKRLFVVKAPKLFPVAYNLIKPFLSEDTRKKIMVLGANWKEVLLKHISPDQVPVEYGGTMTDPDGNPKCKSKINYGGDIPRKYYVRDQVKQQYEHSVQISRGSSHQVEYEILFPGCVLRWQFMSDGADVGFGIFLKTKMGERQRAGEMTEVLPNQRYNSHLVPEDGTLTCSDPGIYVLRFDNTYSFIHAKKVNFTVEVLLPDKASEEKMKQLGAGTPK

[13] = 8% FBS without DHT, HF 5 μM, VES 10 μM, MTT
[14] = RPMI 8% FBS, 10^−5M reagent, cell counting and MTT (FIGS. 8 and 10)

## C[C@]12CCC(=O)C[C@@H]1CC[C@@H]1[C@@H]2CC[C@]2(C)[C@@H](O)CC[C@@H]12 [DHT, 5-dihydrotestosterone]
[1]; 8% CS-FBS, DHT 5 nM, MTT
  LNCaP cell growth: can stimulate
[2]; LNCaP
  PSA expression at mRNA and protein levels: induced
[3]
  DHT induced PSA6.0-Luc activity: induced

## CC(C)(O)C(=O)Nc1ccc([N+](=O)[O-])c(C(F)(F)F)c1 [HF, hydroxyflutamide]
[1]; HF 5 μM, VES 10 μM, MTT
  DHT-mediated LNCaP cell growth: fails to repress
[1]; [13]
  LNCaP cell growth: induces LNCaP cell growth at day 2, with the induction gradually diminishing after day 4

## C[C@]1(O)CC[C@H]2[C@@H]3CCC4=CC(=O)CCC4=C3C=C[C@@]21C [R1881, reference compound]
[4]; 2.5 nM [3H]R1881, 100-fold excess unlabeled R1881 (250 nM)
  specific binding of [3H]R1881 competed: 95%

## C[Se]CC[C@H](N)C(=O)O [SM, selenomethionine]
[1]; 10 μM SM, after 4 days treatment
  LNCaP cell growth: growth inhibition
[2]; LNCaP, 8% FBS, 10 μM SM, Western blot
  PSA expression (protein): no effect
[5]; 10 μM VES
  AR expression at the protein level: no effect

## O=C(O)CCC(=O)O [Suc, succinic acid]
[3]
  DHT induced PSA6.0-Luc activity: not
[5]; 10 μM VES
  AR expression at the protein level: not

## CC(=O)Oc1c(C)c(C)c2c(c1C)CCC(C)(CCC[C@H](C)CCC[C@H](C)CCCC(C)C)O2 (stereo partly drawn) [VEA, α-Vit E acetate]
[2]; LNCaP, 8% FBS
  PSA expression: do not efficiently inhibit
[5]; 8% FBS
  AR expression: do not efficiently inhibit

## Cc1c(C)c2c(c(C)c1OC(=O)CCC(=O)O)CCC(C)(CCCC(C)CCCC(C)CCCC(C)C)O2 (stereo not drawn) [VES, RRR-α-tocopheryl succinate]
[1]; HF 5 μM, VES 10 μM, MTT
  DHT-mediated LNCaP cell growth: effectively represses
[1]; [13]
  LNCaP cell growth: inhibits; also recorded: differentially inhibit
[1]; [14]
  LNCaP cell growth: can inhibit; also recorded: most effective compound; also recorded: most effective isoform
[6]
  prostate fibroblast cell growth: only a marginal inhibitory effect and not
[2]; LNCaP cells in normal serum or androgen-stimulated conditions
  intracellular and secreted levels of PSA: decreases
[2]; LNCaP, 8% FBS
  PSA expression: most effective isoform
[2]; LNCaP
  PSA expression at mRNA and protein levels: effectively repressed
[3]
  DHT induced PSA6.0-Luc activity: repressed
[7]
  GAL4-SP1 transcription activity: did not significantly inhibit
[5]; 8% FBS, 10 μM VES, Northern and Western blotting
  AR mRNA and protein expression: inhibits
[5]; 8% FBS
  AR expression: most effective isoform
[5]; 10 μM VES
  AR expression at the protein level: could suppress
[4]; 10 μM VES pretreatment 24 h, 2.5 nM [3H]R1881
  influence on AR ligand binding: little influence
[8]
  AR distribution between cytosol and nucleus: little influence
  total AR-staining intensity: reduced
[9]; 10 uM VES
  PPARr expression: little effect
[9]; 10 μM VES
  PPARα expression: little effect
[10]
  RXRα expression: little effect
[11]
  morphologic change of LNCaP cells: most of the cells dying

## C=C1/C(=C\C=C2/CCC[C@]3(C)[C@@H]([C@H](C)CCCC(C)(C)O)CC[C@@H]23)C[C@@H](O)C[C@@H]1O [Vit D, 1α, 25-dihydroxyvitamin D3]
[1]; [14]
  LNCaP cell growth: can inhibit
[5]; 10 μM VES
  AR expression at the protein level: not

## Cc1c(C)c2c(c(C)c1O)CCC(C)(CCCC(C)CCCC(C)CCCC(C)C)O2 (centres unmarked) [vitamin E]
[12]
  Kd: 0.46 µM

## Cc1c(C)c2c(c(C)c1O)CC[C@@](C)(CCC[C@H](C)CCC[C@H](C)CCCC(C)C)O2 [α-Vit E, alpha—tocopherol]
[1]; [14]
  LNCaP cell growth: can inhibit
[2]; LNCaP, 8% FBS
  PSA expression: can also inhibit
[5]; 8% FBS
  AR expression: can also inhibit

## Cc1c(O)cc2c(c1C)O[C@](C)(CCC[C@H](C)CCC[C@H](C)CCCC(C)C)CC2 [γ-Vit E, (+)-γ-tocopherol]
[1]; [14]
  LNCaP cell growth: can inhibit
[2]; LNCaP, 8% FBS
  PSA expression: do not efficiently inhibit
[5]; 8% FBS
  AR expression: do not efficiently inhibit
